Laboratory results from patent publication US20230233533A1, “COMPOSITIONS, METHODS OF TREATING AND PREVENTING FUNGAL INFECTIONS, AND METHODS OF INHIBITING PRP8 INTEIN EXPRESSION” (Health Research, Inc., priority 2020, published 2023).
Converted amounts (≈) assume the structure as drawn. Like-named read-outs stand apart in the source and are kept apart here.

Tests used:
[1] = target: T1, Prp8 intein (Cryptococcus gattii, UniProt E6R027); assay: Split Renilla luciferase RLuc-Prp8 intein splicing assay; format: biochemical; details: compound at 20 μM
[2] = In vivo toxicity studies in adult BALB/c mice
Procedure: Mouse 1: Oral, VC—125 ul of formulation without drug is given per mouse by oral gavage
Mouse 3: IP, VC—60 ul of the formulation without the drug is injected intraperitoneally
A total of 5 doses were given (one/day). Weight, posture, movement, activity, paralysis, seizure, and fur nature were monitored in the morning and evening.

[3] = tested on: C. neoformans H99 strain; assay: Fungal susceptibility test, broth microdilution MIC; format: cell-based, Cryptococcus neoformans; details: for MIC: Cryptococcus neoformans, H99STRAIN
In short: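 Compound MICs were determined by broth microdilution using a compound concentration series.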

[4] = tested on: Candida albicans; assay: as above; format: cell-based; details: microdilution assay
Procedure: Fungal susceptibility test—The fungal susceptibility test was carried out with a compound concentration series as described. Li et al., “Cisplatin Protects Mice From Challenge of Cryptococcus neoformans by Targeting the Prp8 Intein,” Emerging Microbes & Infections 8(1):895-908 (2019), which is hereby incorporated by reference in its entirety. The broth microdilution method was used to determine the compound MIC values against C. neoformans. In brief, serial 2-fold dilutions of the 6G-318SS (20 to 0.03 μg/ml) were made in 100 μl RPMI-1640 medium with MOPS in 96-well U-bottom plates. The C. neoformans H99 strain (100 μl of 0.5×10^5/ml) in log phase was added to each well. […] The MIC break-point was defined as no visible fungal growth by naked eye or by determining the 90% growth inhibition using absorbance at 630 nm, compared with no inhibitor control in a 96-well plate.
C. albicans, a fungus without the Prp8 intein, was also used as a control.

[5] = target: T2, C1A Prp8 intein mutant (Cryptococcus gattii, UniProt E6R027, C1531A); details: C1A versus WT, SPR
T2 sequence (E6R027 1531-1700 C1531A): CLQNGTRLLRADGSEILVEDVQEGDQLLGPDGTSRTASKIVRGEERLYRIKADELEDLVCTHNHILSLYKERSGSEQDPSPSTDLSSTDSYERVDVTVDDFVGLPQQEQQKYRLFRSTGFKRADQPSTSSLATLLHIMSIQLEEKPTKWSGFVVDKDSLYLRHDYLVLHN
Procedure: The Prp8 intein and mutants were immobilized onto a ProteOn™ GLH sensor chip (2,500-7,000 RU) (Bio-Rad). A 3-fold dilution series of compounds was injected as the analytes. A blank surface blocked by ethanolamine was used as the control surface. The experiment was carried out at a flow rate of 100 μl/min using a PBSTD buffer containing 1×PBS, 0.005% surfactant P20, and 5% DMSO. Association (ka) and dissociation (kd) rates, as well as the dissociation constant (KD), were obtained by global fitting of the SPR data from multiple concentrations to a simple 1:1 Langmuir binding model, using the ProteOn Manager software suite (Bio-Rad).

[6] = tested on: C. neoformans strain H99; assay: Minimum fungicidal concentration (MFC) determination; format: cell-based; details: Cryptococcus neoformans
Procedure: […] cells (100 ul of 0.5×10^5/ml) in log phase were added to each well. […] Then, the cultured cells in selected wells were first suspended by gentle pipetting. 50 μl of the cell culture suspension from each well was plated onto the Sabouraud dextrose agar (SDA) plates and further incubated for 48 h. MFC is defined as the minimum concentration where there is no growth after plating to the SDA plates. […] To determine minimum fungicidal concentration (MFC), the cultured cells in selected wells were first suspended by gentle pipetting. Then 50 ul of the cell culture suspension from each well was plated onto the Sabouraud dextrose agar (SDA) plates and further incubated for 48 h. MFC is defined as the minimum fungicidal concentration where there is no growth after plating on the SDA plates.

[7] = target: T1, Prp8 intein; assay: MIG-Prp8 in-gel splicing assay; format: biochemical; details: E. coli lysate, TCEP-triggered
Procedure: The MIG-Prp8 and Prp8-GFP in-gel splicing assays—The MIG Prp8 and Prp8-GFP splicing assays were carried out as described. […] The samples were analyzed in SDS-PAGE without boiling. The gels were quantified using GFP fluorescence and Coomassie blue staining with the Bio-Rad Gel Doc EZ.
This reporter system, MIG-Prp8, comprising a fusion protein of the Prp8 intein flanked by maltose binding protein (MBP) and green fluorescent protein (GFP), allowed observation of functional Prp8 intein splicing in Escherichia coli lysate. […] C-terminal cleavage product (CC; GFP) could also be visualized.

## O=C(Nc1ccc(F)cc1)c1nnsc1S(=O)(=O)c1ccc(Cl)cc1 [6G-318S, 5-[(4-chlorophenyl)sulfonyl]-N-(4-fluorophenyl)-1,2,3-thiadiazole-4-carboxamide]
[1]
  suppression of RLuc-Prp8 intein splicing activity: greater than 50%
[2]; 50 mg/kg intraperitoneally
  observed condition of mouse: died on day 2
[2]; mouse, in vivo, po, 5 days
  dose with no observed toxicity / safe dose, oral: 200 mg/kg
[3]; C. neoformans H99, microbroth dilution, read-out: MIC H99
  MIC: 1.56 µM
[3]; C. neoformans and other related species, read-out: minimum inhibitory concentration (MIC) 90
  MIC: 0.6 to 1 µg/mL
[3]; H99 strain, 48 h, 30° C., read-out: MIC C. neoformans
  MIC: 0.62 µg/mL
[3]; H99 strain, 48 h, 30° C.
  MIC C. neoformans: 0.6 µg/mL (≈ 1.51 µM)
[4]
  MIC: 5 µg/mL (≈ 12.6 µM)
[5]
  reduction of binding affinity by Cys1 to alanine mutation: ~3 fold
[6]
  MFC: 1.25 µg/mL (≈ 3.14 µM)
[7]
  inhibition of MIG-Prp8 splicing: accumulation of the MIG-Prp8 precursor PP and decrease of LE product in a dose-dependent manner
